Consider 24 molecules from patent US8518958B2, “Pyrido [2,3-D] pyrimidines and their use as kinase inhibitors” (Forma Therapeutics, Inc., priority 2006, dated 2013).

Molecules are shown by their SMILES. A value given as a limit tells only on which side of the number the result lay.

One assay has as its target B-Raf delta1-415 (Homo sapiens, UniProt P15056). As to the kind of experiment: B-Raf kinase inhibition (MAPH filter plate, 33P-ATP, MEK1 substrate). Particulars: read-out: Biochemical IC50 B-Raf. An excerpt: We characterized the in vitro inhibitory activity against protein kinases of compounds of the present invention by determining their IC50 values (see Table 2).
Kinase: B-Raf delta1-415 (e.g., Upstate Cat. No. 14-530)
Reaction Temperature: room temperature
Assay Plate: 96 well U bottom plate (Greiner, 650161)
MultiScreen-PH Plate: 96 well MAPH Filter Plates (Millipore, MAPHNOB50)
Filter Washing Solution: 0.75% H3PO4
Szintilation Liquid: Supermix Liquid Szintillator (PerkinElmer, 1200-439)
Negative Control (C−): 100 mM EDTA, no Inhibitor
Positive Control (C+): no Inhibitor
Reaction Buffer: 20 mM Mops, pH 7.0 • 10 mM MgCl2 • 0.4 mM MnCl2 • 100 mM NaCl • 1 mM DTT • 0.01% NP40
Final Assay Concentrations:
Kinase: Kinase conc. yielding 50% substrate turnover as determined in titration experiment.
Adenosine 5′-[γ-^33P]triphosphate: 12.5 μCi/ml (Amersham Biosciences, BF1000)
Pipetting Sequence: • 1) Add 10 μl 4-fold concentrated substrate in 3-fold concentrated reaction buffer to each well of assay plate • 2) Add 10 μl 4-fold concentrated inhibitor in 4% DMSO in H2O to each well except to C− and C+ wells (starting point: final inhibitor concentration 10 μM; IC50 determination based on dilution series) • 3) Add 10 μl 4% DMSO in H2O to C− and C+ wells • 4) Add 10 μl 500 mM EDTA in H2O to C− wells • 5) Add 10 μl 50 μCi/ml adenosine 5′-[γ-^33P]triphosphate in H2O+4-fold cold ATP to each well • 6) Add 10 μl 4-fold concentrated kinase in reaction buffer to each well • 7) Incubate 1 hr at room temperature • 8) Add 10 μl 50 mM EDTA in H2O to each well except to C− wells • 9) Prepare MAPH plates by adding 200 μl 0.75% H3PO4 to each well • 10) Exhaust 0.75% H3PO4 using Millipore vacuum station • 11) Add 60 μl 0.75% H3PO4 to each well of MAPH filter plate • 12) Transfer 30 μl sample per well from assay plate to corresponding well of MAPH filter plate • 13) Incubate 30 min at room temperature • 14) Wash each well of MAPH filter plates 3× with 200 μl 0.75% H3PO4 using Millipore vacuum station • 15) Add 20 μl scintillation liquid to each well of MAPH filter plate • 16) Seal MAPH filter plate • 17) Store MAPH filter plate 30 min in darkness • 18) Quantify radioactivity using scintillation counter (MicroBeta, Perkin-Elmer)

For the next assay, the system named is HT-29 tumor cells. Kind of assay: Anti-proliferative activity, SRB assay. Particulars: Homo sapiens, HT-29, 72 h, 72 hours exposure, read-out: CELLULAR IC50 HT-29. In kind it is cell-based, human. On the procedure: We observed the surprising finding that compounds of the invention were useful in inhibiting proliferation of HT-29 tumor cells (see Table 3).
3,000-15,000 cells/well were exposed to the test compounds at various concentrations appropriate to determine an IC50, for 72 hours, and cell proliferation was measured using the SRB assay according to Shekan et al (J Natl Cancer Inst (1990) 82, 1107-112) in order to estimate the IC50 values shown in Table 3. Briefly, cells were plated in 96 well dishes 24 hours prior to compound addition. The assay was terminated with the addition of cold TCA to a final concentration of 10% and the plates were incubated for one hour at 4° C. The plates were then washed 5 times with water and 100 μl of a Sulforhodamine B solution (4%) was added to each well. The plate was then incubated for 10 minutes at room temperature before removal of unbound dye by washing with 1% acetic acid. The bound dye was solubilized with 10 mM Trizma base and the absorbance read at OD570. Inhibitory activity of the compounds was calculated as % inhibition of cell proliferation compared to cells treated with the solvent (DMSO).
(In general: The SRB assay estimates cell density from bound dye.)

B-Raf delta1-415, sequence (P15056 416-766): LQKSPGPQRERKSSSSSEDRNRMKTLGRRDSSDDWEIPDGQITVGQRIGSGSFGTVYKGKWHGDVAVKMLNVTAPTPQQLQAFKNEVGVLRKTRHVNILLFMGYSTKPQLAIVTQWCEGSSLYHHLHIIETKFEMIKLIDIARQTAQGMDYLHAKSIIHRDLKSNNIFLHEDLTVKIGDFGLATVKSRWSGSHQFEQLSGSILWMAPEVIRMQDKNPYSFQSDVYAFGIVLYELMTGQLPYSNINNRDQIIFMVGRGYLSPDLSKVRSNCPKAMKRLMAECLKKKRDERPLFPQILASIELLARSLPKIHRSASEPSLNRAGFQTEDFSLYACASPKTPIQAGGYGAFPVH

`O=c1c(-c2c(Cl)cccc2Cl)cc2cnc(Nc3ccc(N4CCNCC4)cc3)nc2n1OCC1CCOCC1` [Compound 202, 6-(2,6-Dichlorophenyl)-8-(tetrahydropyran-4-ylmethyl)oxy-2-(4-piperazinophenyl)-amino-pyrido[2,3-d]pyrimidin-7-one]: the IC50 (commonly the concentration needed to halve the response being measured) on B-Raf delta1-415 was < 500 nM; in the assay with HT-29 tumor cells, < 1000 nM.

As to `COn1c(=O)c(-c2c(Cl)cccc2Cl)cc2cnc(Nc3cccc(S(C)(=O)=O)c3)nc21` [Compound 157, 6-(2,6-Dichlorophenyl)-8-methoxy-2-(3-methylsulfonylphenyl)-amino-pyrido[2,3-d]pyrimidin-7-one], the results for the IC50 at B-Raf delta1-415 and in the assay with HT-29 tumor cells were < 100 nM and < 1000 nM, respectively. `COn1c(=O)c(-c2c(Cl)cccc2Cl)cc2cnc(NC3CC3)nc21` [Compound 113, 2-Cyclopropylamino-6-(2,6-dichlorophenyl)-8-methoxy-pyrido[2,3-d]pyrimidin-7-one]: the figures for the concentration for half-maximal inhibition (IC50) on B-Raf delta1-415 and in the assay with HT-29 tumor cells were < 500 nM and < 10000 nM, respectively. Regarding `O=c1c(-c2ccccc2Cl)cc2cnc(Nc3ccccc3)nc2n1O` [Compound 240, 6-(2-Chlorophenyl)-8-hydroxy-2-phenylamino-pyrido[2,3-d]pyrimidin-7-one], the IC50 was > 1000 nM at B-Raf delta1-415 and < 10000 nM in the assay on HT-29 tumor cells. For `COn1c(=O)c(-c2c(Cl)cccc2Cl)cc2cnc(Nc3ccc(C(F)(F)F)c(Cl)c3)nc21` [Compound 133, 2-(3-Chloro-4-trifluoromethylphenyl)-amino-6-(2,6-dichlorophenyl)-8-methoxy-pyrido[2,3-d]pyrimidin-7-one], the IC50 at B-Raf delta1-415 was > 1000 nM; in the assay on HT-29 tumor cells it was < 10000 nM. With `COn1c(=O)c(-c2c(Cl)cccc2Cl)cc2cnc(Nc3ccc(Cn4cnnc4)cc3)nc21` [Compound 175, 2-(4-(1,3,4-triazol-1-yl)methylphenyl)-amino-6-(2,6-dichlorophenyl)-8-methoxy-pyrido[2,3-d]pyrimidin-7-one], the IC50 on B-Raf delta1-415 is < 500 nM; with HT-29 tumor cells, < 1000 nM. In the case of `COn1c(=O)c(-c2c(C)cccc2C)cc2cnc(Nc3cc(C(=O)NCCO)n(C)c3)nc21` [Compound 83, 6-(2,6-Dimethylphenyl)-2-(5-(2-hydroxyethyl)aminocarbonyl-1-methyl-pyrrol-3-yl)-amino-8-methoxy-pyrido[2,3-d]pyrimidin-7-one], the IC50 at B-Raf delta1-415 was < 500 nM; in the assay on HT-29 tumor cells, < 1000 nM. On to `COn1c(=O)c(-c2c(Cl)cccc2Cl)cc2cnc(Nc3cccc(-c4nnn[nH]4)c3)nc21` [Compound 130, 6-(2,6-Dichlorophenyl)-8-methoxy-2-(3-tetrazol-5-ylphenyl)-amino-pyrido[2,3-d]pyrimidin-7-one], for which the IC50 at B-Raf delta1-415 is < 500 nM; with HT-29 tumor cells, > 10000 nM. The corresponding values for `COn1c(=O)c(-c2c(Cl)cccc2Cl)cc2cnc(NC(=O)C3CC3)nc21` [Compound 80, 2-Cyclopropylcarbonylamino-6-(2,6-dichlorophenyl)-8-methoxy-pyrido[2,3-d]pyrimidin-7-one] are > 1000 nM and > 10000 nM.

As to `COn1c(=O)c(-c2c(Cl)cccc2Cl)cc2cnc(Nc3ccc(OCC(O)CO)cc3)nc21` (stereo not shown) [Compound 93, 6-(2,6-Dichlorophenyl)-2-(4-(2,3-dihydroxypropyl)oxyphenyl) amino-8-methoxy-pyrido[2,3-d]pyrimidin-7-one], the IC50 at B-Raf delta1-415 is < 500 nM; in the assay on HT-29 tumor cells, < 1000 nM. For `C/C=C/C(=O)Nc1ncc2cc(-c3c(C)cccc3C)c(=O)n(OC)c2n1` [Compound 96, 2-But-2-enoylamino-6-(2,6-dimethylphenyl)-8-methoxy-pyrido[2,3-d]pyrimidin-7-one], the IC50 on B-Raf delta1-415 is > 1000 nM; in the assay on HT-29 tumor cells, > 10000 nM.

For `COCCOn1c(=O)c(-c2c(Cl)cccc2Cl)cc2cnc(Nc3cc(C(=O)N(C)CCOC)n(C)c3)nc21` [Compound 170, 6-(2,6-Dichlorophenyl)-8-(2-methoxyethyl)oxy-2-(5-N-(2-methoxyethyl)-N-methyl-aminocarbonyl-1-methyl-pyrrol-3-yl)-amino-pyrido[2,3-d]pyrimidin-7-one], the IC50 was < 500 nM at B-Raf delta1-415 and < 1000 nM with HT-29 tumor cells.

Turning to `COn1c(=O)c(-c2c(Cl)cccc2Cl)cc2cnc(Nc3ccc(CN4CCC(F)(F)C4)cc3)nc21` [Compound 196, 6-(2,6-Dichlorophenyl)-2-(4-(3,3-difluoropyrrolidinomethyl)phenyl)-amino-8-methoxy-pyrido[2,3.-d]pyrimidin-7-one], the IC50 on B-Raf delta1-415 was < 500 nM; with HT-29 tumor cells it was < 1000 nM. Turning to `CCOn1c(=O)c(-c2c(Cl)cccc2Cl)cc2cnc(Nc3cc(C(=O)N(C)CCOC)n(C)c3)nc21` [Compound 171, 6-(2,6-Dichlorophenyl)-8-ethoxy-2-(5-N-(2-methoxyethyl)-N-methyl-aminocarbonyl-1-methyl-pyrrol-3-yl)-amino-pyrido[2,3-d]pyrimidin-7-one], the figures for the IC50 on B-Raf delta1-415 and in the assay on HT-29 tumor cells were < 500 nM and < 1000 nM, respectively. Turning to `O=c1c(-c2c(F)cccc2Cl)cc2cnc(Nc3ccc(N4CCOCC4)cc3)nc2n1OC[C@@H](O)CO` [Compound 148], the figures for the IC50 at B-Raf delta1-415 and with HT-29 tumor cells were < 100 nM and < 1000 nM, respectively. Consider `COn1c(=O)c(-c2c(Cl)cccc2Cl)cc2cnc(Nc3cccc(O)c3)nc21` [Compound 219, 6-(2,6-Dichlorophenyl)-2-(3-hydroxyphenyl)-amino-8-methoxy-pyrido[2,3-d]pyrimidin-7-one], for which the IC50 was < 500 nM on B-Raf delta1-415 and < 10000 nM in the assay on HT-29 tumor cells.

With `COn1c(=O)c(-c2c(Cl)cccc2Cl)cc2cnc(Nc3ccc(N4CCCC4)cc3)nc21` [Compound 105, 6-(2,6-Dichlorophenyl)-8-methoxy-2-(4-pyrrolidinophenyl)-amino-pyrido[2,3-d]pyrimidin-7-one], the results for the IC50 on B-Raf delta1-415 and in the assay with HT-29 tumor cells were < 500 nM and < 10000 nM, respectively. For `CNS(=O)(=O)Cc1ccc(Nc2ncc3cc(-c4c(Cl)cccc4Cl)c(=O)n(OC)c3n2)cc1` [Compound 125, 6-(2,6-dichlorophenyl)-8-methoxy-2-(4-(methylaminosulfonylmethyl)phenyl)-amino-pyrido[2,3-d]pyrimidin-7-one], the IC50 at B-Raf delta1-415 is < 100 nM; in the assay with HT-29 tumor cells, < 1000 nM.

Regarding `COn1c(=O)c(-c2c(Cl)cccc2Cl)cc2cnc(NCCO)nc21` [Compound 102, 6-(2,6-Dichlorophenyl)-2-hydroxyethylamino-8-methoxy-pyrido[2,3-d]pyrimidin-7-one], the values for the IC50 on B-Raf delta1-415 and in the assay with HT-29 tumor cells were < 500 nM and < 10000 nM, respectively.

As for `CN1CCN(c2ccc(Nc3ncc4ccc(=O)n(OC(C)(C)C)c4n3)cc2)CC1` [Compound 233], the IC50 on B-Raf delta1-415 was > 1000 nM. As to `COc1cc(Nc2ncc3cc(-c4c(Cl)cccc4Cl)c(=O)n(OC)c3n2)ccc1N1CCNCC1` [Compound 227, 6-(2,6-Dichlorophenyl)-8-methoxy-2-(3-methoxy-4-piperazino-phenyl)-amino-pyrido[2,3-d]pyrimidin-7-one], in the assay with HT-29 tumor cells, the IC50 is < 1000 nM. As for `NCCCCOn1c(=O)c(-c2c(Cl)cccc2Cl)cc2cnc(Nc3ccccc3)nc21` [Compound 66, 8-(4-Aminobutyl)oxy-6-(2,6-dichlorophenyl)-2-phenylamino-pyrido[2,3-d]pyrimidin-7-one], the IC50 at B-Raf delta1-415 was < 100 nM. As for `CN1CCN(c2ccc(Nc3ncc4ccc(=O)n(OC5CCCCC5)c4n3)cc2)CC1` [Compound 236], in the assay on HT-29 tumor cells, the IC50 was < 1000 nM. As for `Cn1cc(Nc2ncc3cc(-c4c(F)cccc4Cl)c(=O)n(OCC4CCOCC4)c3n2)cc1C(=O)N1CCNCC1` [Compound 224, 6-(2-Chloro-6-fluorophenyl)-2-(5-(piperazinocarbonyl)-1-methyl-pyrrol-3-yl)-amino-8-(tetrahydropyran-4-ylmethyl)oxy-pyrido[2,3-d]pyrimidin-7-one], the IC50 in the assay with HT-29 tumor cells was < 1000 nM.
